Test results from US20250257075A1, “MACROCYCLIC INHIBITORS OF KRAS FOR THE TREATMENT OF CANCER” (Hoffmann-La Roche Inc., priority 2022, published 2025).

What was measured:
[1] = system: NCI-H358 cells (KRAS G12C); experiment: Cell viability assay, G12C; assay type: cell-based, human; settings: NCI-H358, 72 hrs, Cell Counting Kit-8
In short: (§1)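 IC50 derived by 4-parameter sigmoidal fit of CCK-8 signal (OD450−OD650, 2 h development) after 72 h compound exposure in 0.5% DMSO. Seeding density was 5,000 cells/well for NCI-H358 and 2,000 cells/well for AGS and SW620, plated overnight before dosing.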

[2] = system: AGS cells (KRAS G12D); experiment: Cell viability assay, G12D; assay type: cell-based, human; settings: 72 hrs, Cell Counting Kit-8
In short: as §1

[3] = system: SW620 cells (KRAS G12V); experiment: Cell viability assay, G12V; assay type: cell-based, human; settings: SW620, 72 hrs, Cell Counting Kit-8
In short: as §1

[4] = molecular target: T1, KRAS G12C-BRAF complex (Homo sapiens, UniProt P01116+P62937, G12C); experiment: KRAS G12C-BRAF NanoBit assay in HEK293 cells; assay type: cell-based; settings: HEK293 stable cell pool, 3 hours of incubation
T1 construct: expressed in transfected cells
In short: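 HEK293 stable pool co-expressing SmBiT-KRAS G12C and BRAF RBD-LgBiT, exposed 3 h to compounds (16-point 3-fold dilution, top final 30 μM). Luminescence was read 20 min after Nano-Glo Live Cell substrate addition. A decrease versus DMSO control indicates disruption of the complex.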

[5] = molecular target: T1, KRAS G12C-BRAF complex; experiment: KRAS-BRAF with CYPA (500 nM) interaction assay (TR-FRET), G12C; assay type: biochemical; settings: 3 hours
Protocol: (§2) Kras-BRAF with CYPA (500 nM) Interaction Assay In this example, TR-FRET was also used to measure the compound or compound-CYPA dependent disruption of the KRAS G12C-BRAF complex. This protocol was also used to measure disruption of KRAS G12D or KRAS G12V binding to BRAF by a compound of the invention, respectively. […] TR-FRET signal was read on a […] microplate reader (Ex320 nm, Em 665/615 nm). Compounds that facilitate disruption of the KRAS-BRAF complex were identified as those eliciting a decrease in the TR-FRET ratio relative to DMSO control wells.

[6] = molecular target: KRAS G12D binding to BRAF (Homo sapiens, UniProt P01116+P62937, G12D); experiment: KRAS-BRAF with CYPA (500 nM) interaction assay (TR-FRET), G12D; assay type: biochemical; settings: 3 hours
Protocol: as §2

[7] = molecular target: KRAS G12V binding to BRAF (Homo sapiens, UniProt P01116+P62937, G12V); experiment: KRAS-BRAF with CYPA (500 nM) interaction assay (TR-FRET), G12V; assay type: biochemical; settings: 3 hours
Protocol: as §2

[8] = system: phosphorylation of ERK, KRAS G12C in NCI-H358 cells; experiment: pERK inhibition assay, G12C; assay type: cell-based, human; settings: NCI-H358, 4 hours of incubation
In short: (§3)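 NCI-H358 (G12C), AGS (G12D) and SW620 (G12V) cells were seeded overnight at 30,000, 20,000 and 30,000 cells/well, respectively. They were then treated 4 h with compound (0.5% DMSO final), fixed, and methanol-permeabilized. pERK was detected by in-cell ELISA (anti-pERK/HRP, TMB, OD450); IC50 from a 4-parameter sigmoidal fit.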

[9] = system: phosphorylation of ERK, KRAS G12D in AGS cells; experiment: pERK inhibition assay, G12D; assay type: cell-based, human; settings: 4 hours of incubation
In short: as §3

[10] = system: phosphorylation of ERK, KRAS G12V in SW620; experiment: pERK inhibition assay, G12V; assay type: cell-based, human; settings: SW620, 4 hours of incubation
In short: as §3

T1 sequence (P01116 1-188 isoform P01116-2 G12C): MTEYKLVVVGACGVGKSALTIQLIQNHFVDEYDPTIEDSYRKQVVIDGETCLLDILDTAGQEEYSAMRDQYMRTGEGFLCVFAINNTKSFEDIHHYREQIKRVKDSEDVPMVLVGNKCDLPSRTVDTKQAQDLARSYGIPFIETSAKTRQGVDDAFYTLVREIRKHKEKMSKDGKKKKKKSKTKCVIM
T1 sequence (P62937 whole entry): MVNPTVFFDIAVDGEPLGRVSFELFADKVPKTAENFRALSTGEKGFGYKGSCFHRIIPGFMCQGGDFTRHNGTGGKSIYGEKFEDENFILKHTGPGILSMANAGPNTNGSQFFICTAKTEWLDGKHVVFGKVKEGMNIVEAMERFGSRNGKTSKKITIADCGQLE
Chain of KRAS G12D binding to BRAF (P01116 1-188 isoform P01116-2 G12D): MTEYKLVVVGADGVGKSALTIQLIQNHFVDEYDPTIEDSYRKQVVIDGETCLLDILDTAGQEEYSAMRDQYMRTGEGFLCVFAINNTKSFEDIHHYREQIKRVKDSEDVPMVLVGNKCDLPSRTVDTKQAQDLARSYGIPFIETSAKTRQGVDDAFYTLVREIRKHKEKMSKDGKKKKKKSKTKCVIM
Chain of KRAS G12D binding to BRAF (P62937 whole entry): as the sequence (P62937 whole entry) above
Chain of KRAS G12V binding to BRAF (P01116 1-188 isoform P01116-2 G12V): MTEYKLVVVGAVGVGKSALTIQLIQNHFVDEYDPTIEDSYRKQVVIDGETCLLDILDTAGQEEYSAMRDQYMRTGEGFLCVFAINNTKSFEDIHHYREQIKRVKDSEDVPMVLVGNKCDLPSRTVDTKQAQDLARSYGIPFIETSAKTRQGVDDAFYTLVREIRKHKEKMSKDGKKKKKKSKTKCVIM
Chain of KRAS G12V binding to BRAF (P62937 whole entry): as the sequence (P62937 whole entry) above

Structure (SMILES): CO[C@@H](C)c1ncc(N2CCN(C)CC2)cc1-c1c2c3cc(c(F)cc3n1CC(F)(F)F)-c1csc(n1)C[C@H](NC(=O)[C@H](C(C)C)N(C)C(=O)[C@H]1C[C@@H](C#Cc3ncccn3)C1)C(=O)N1CCC[C@H](N1)C(=O)OCC(C)(C)C2 (relative stereo) [Example 5, cis-N-[(1S)-1-[[(7S,13S)-24-fluoro-(20M)-20-[2-[(1S)-1-methoxyethyl]-5-(4-methylpiperazin-1-yl)-3-pyridyl]-17,17-dimethyl-8,14-dioxo-21-(2,2,2-trifluoroethyl)-15-oxa-4-thia-9,21,27,28-tetrazapentacyclo[17.5.2.1^2,5.1^9,13.0^22,26]octacosa-1(25),2,5(28),19,22(26),23-hexaen-7-yl]carbamoyl]-2-methyl-propyl]-N-methyl-3-(2-pyrimidin-2-ylethynyl)cyclobutanecarboxamide]
- IC50 [1]: 0.007 µM
- IC50 [2]: 0.536 µM
- IC50 [3]: 0.23 µM
- IC50 [4]: 0.106 µM
- IC50 [5]: 0.128 µM
- IC50 [6]: 9.95 µM
- IC50 [7]: 1.1 µM
- IC50 [8]: 0.058 µM
- IC50 [9]: 0.145 µM
- IC50 [10]: < 0.001 µM

Structure (SMILES): CO[C@@H](C)c1ncc(N2CCN(C)CC2)cc1-c1c2c3cc(c(F)cc3n1CC(F)(F)F)-c1csc(n1)C[C@H](NC(=O)[C@@H](CC(=O)N1CC(C#CC(F)(F)F)C1)C(C)C)C(=O)N1CCC[C@H](N1)C(=O)OCC(C)(C)C2 [Example 19, (2S)—N-[(7S,13S)-24-fluoro-(20M)-20-[2-[(1S)-1-methoxyethyl]-5-(4-methylpiperazin-1-yl)-3-pyridyl]-17,17-dimethyl-8,14-dioxo-21-(2,2,2-trifluoroethyl)-15-oxa-4-thia-9,21,27,28-tetrazapentacyclo[17.5.2.1^2,5.1^9,13.0^22,26]octacosa-1(25),2,5(28),19,22(26),23-hexaen-7-yl]-2-isopropyl-4-oxo-4-[3-(3,3,3-trifluoroprop-1-ynyl)azetidin-1-yl]butanamide]
- IC50 ([1]; Homo sapiens): 0.166 µM
- IC50 ([2]; Homo sapiens): 3.34 µM
- IC50 ([3]; Homo sapiens, SW-620): 0.653 µM
- IC50 [4]: 0.075 µM
- IC50 [5]: 0.24 µM
- IC50 [6]: > 10 µM
- IC50 [7]: 2.25 µM
- IC50 ([8]; Homo sapiens): 0.221 µM
- IC50 ([9]; Homo sapiens): > 10 µM
- IC50 ([10]; Homo sapiens, SW-620): 0.198 µM
